# Data published in patent US8912190B2, “Substituted heterocyclic compounds” (Gilead Sciences, Inc., priority 2008, dated 2014).
# Key:
# hERG potassium channel = target: T1, hERG potassium channel (Homo sapiens, UniProt Q12809); assay: hERG screening assay (PatchXpress patch clamp, CHO cells); format: cell-based; details: CHO cells expressing hERG; for HERG 1 uM (block of hERG current): compound at 1 uM; for HERG 10 uM (block of hERG current): compound at 10 uM
# T1 construct: expressed in transfected cells; host or cells: CHO (Chinese Hamster Ovary)
# Method: Compounds were screened to test their activity in blocking the hERG potassium channel. The hERG channel is heterologously expressed in a CHO (Chinese Hamster Ovary) cell line. Cells were maintained with standard tissue culture procedures and stable channel expression was maintained with 500 μg/ml G418 in the culture medium. Cells were harvested for testing on the PatchXpress automated patch clamp with Accumax (Innovative Cell Technologies, San Diego, Calif.) to isolate single cells.
# The following solutions were used for electrophysiological recordings. The external solution contained: 2 mM CaCl2; 2 mM MgCl2; 4 mM KCl; 150 mM NaCl; 10 mM Glucose; 10 mM HEPES (pH 7.4 with 1M NaOH, osmolarity). The internal solution contained: 140 mM KCl, 10 mM MgCl2, 6 mM EGTA, 5 mM HEPES, 5 mM ATP (pH adjusted to 7.25 with KOH).
# hERG channels were activated when the voltage was stepped to +20 mV from the −80 mV holding potential. During a 5 second step at +20 mV, the channels activated and then largely inactivated, so the currents were relatively small. Upon returning to −50 mV from +20 mV, hERG currents transiently became much larger as inactivation was rapidly removed and then the channel closed. The first step to −50 mV for 300 ms was used as a baseline for measuring the peak amplitude during the step to −50 mV after channel activation. The peak current at −50 mV was measured both under control conditions and after addition of compound.
# All compounds were prepared as 10 mM DMSO stocks in glass vials. Stock solutions were mixed by vigorous vortexing and sonication for about 2 minutes at room temperature. For testing, compounds were diluted in glass vials using an intermediate dilution step in pure DMSO and then further diluted to working concentrations in external solution. Dilutions were prepared no longer than 20 minutes before use.
# After achieving the whole-cell configuration, cells were monitored for 90 seconds to assess stability and washed with external solution for 66 seconds. The voltage protocol described above was then applied to the cells every 12 seconds and throughout the whole procedure. Only cells with stable recording parameters and meeting specified health criteria were allowed to enter the compound addition procedure.
# External solution containing 0.1% DMSO (vehicle) was applied to the cells first to establish the control peak current amplitude. After allowing the current to stabilize for […], 1 μM and then 10 μM test compounds were applied. Each compound concentration was added 4 times and cells were kept in test solution until the effect of the compound reached steady state or for a maximum of 12 minutes. After addition of test compound, a positive control (1 μM Cisapride) was added, and must block >95% of the current for the experiment to be considered valid. Washout in the external solution compartment was performed until the recovery of the current reached steady state. Data was analyzed using DataXpress, Clampfit (Molecular Devices, Inc., Sunnyvale) and Origin 7 (Originlab Corp.)
# [1] = target: T2, wild-type human cardiac sodium channel, hNav1.5 (Homo sapiens, UniProt Q14524); assay: Late INa screening assay (PatchXpress whole cell patch clamp); format: cell-based; details: HEK293 hNav1.5; for inhibition at 10 µM: compound at 10 uM, late INa generated with Tefluthrin or ATX II, read-out: Late INa 10 uM (percent block of late INa); for Late INa 1 uM (percent block of late INa): compound at 1 uM
# T2 construct: host or cells: HEK293
# Method: The late sodium current (Late INa) and peak sodium current (Peak INa) assays were performed on an automated electrophysiology platform, PatchXpress 7000A (MDS Analytical Technologies, Sunnyvale, Calif.), using the whole cell patch clamp technique to measure currents through the cell membrane of up to 16 cells at a time. The assay used an HEK293 (human embryonic kidney) cell line heterologously expressing the wild-type human cardiac sodium channel, hNav1.5, purchased from Millipore (Billerica, Mass.). No beta subunits were coexpressed with the Na channel alpha subunit. Cells were maintained with standard tissue culture procedures, and stable channel expression was maintained with 400 μg/ml Geneticin in the culture medium. Cells isolated for use on PatchXpress were incubated for 5 minutes in Versene 1× and then for 2 minutes in 0.0125% Trypsin-EDTA (both at 37° C.) to ensure that 80-90% of the cells are single and not part of a cell cluster. Experiments were carried out at 24-27° C.
# For both the Late INa and Peak INa assays, series resistance compensation was set to 50% and whole-cell compensation was performed automatically. Currents were low-pass filtered at 10 kHz and digitized at 31.25 kHz. Currents through open sodium channels were automatically recorded and stored in the DataXpress2 database (MDS Analytical Technologies, Sunnyvale, Calif.). Analysis was performed using DataXpress2 analysis software and data are compiled in Excel.
# Compound stocks were routinely made in glass vials to 10 mM in dimethyl sulfoxide (DMSO). In some cases, when compounds were not soluble in DMSO, they are made in 100% ethanol. Stocks were sonicated as necessary. The extracellular solution for screening Late INa was composed of: 140 mM NaCl, 4 mM KCl, 1.8 mM CaCl2, 0.75 mM MgCl2, and 5 mM HEPES with pH adjusted to 7.4 using NaOH. The extracellular solution for screening Peak INa was composed of: 20 mM NaCl, 120 mM N-methyl-D glucamine, 4 mM KCl, 1.8 mM CaCl2, 0.75 mM MgCl2, and 5 mM HEPES with pH adjusted to 7.4 using HCl. The intracellular solution used to perfuse the inside of the cells for both the Late INa and Peak INa assays contained: 120 mM CsF, 20 mM CsCl, 5 mM EGTA, 5 mM HEPES and pH adjusted to 7.4 with CsOH. Compounds were diluted in extracellular solution to […] in glass vials and then transferred to glass well plates before robotic addition to the cells. The 0Na extracellular solution used at the end of each experiment for the Late INa and Peak INa assays to measure baseline current contained: 140 mM N-methyl-D-glucamine; 4 mM KCl; 1.8 mM CaCl2; 0.75 mM MgCl2; 5 mM HEPES and pH was adjusted to 7.4 with HCl.
# For the Late INa assay, sodium channels were activated every 10 seconds (0.1 Hz) by depolarizing the cell membrane to −20 mV for 250 milliseconds (ms) from a holding potential of −120 mV. In response to a −20 mV voltage step, typical Nav1.5 sodium currents activated rapidly to a peak negative current and then inactivated nearly completely within 3-4 ms.
# All compounds were tested to determine their activity in blocking the late sodium current. Late INa current was generated by adding 10 μM Tefluthrin (pyrethroid) to the extracellular solution while recording Na currents. For some experiments, 50 nM ATX II (sea anemone toxin), another late INa activator, was used to generate the late component. Both activators generated late components that are large, and thus block of the late component by compounds could be measured easily. For the purposes of the screening, late INa is defined as the mean current between 225 ms and 250 ms after stepping to −20 mV to activate Na channels. After establishing the whole cell recording configuration, late INa activators were added to each well 4 times over a 16-17 minute period so that the late component of the Na current reached a stable value. Compounds were then added (typically at 10 μM), in the presence of late INa activator, with 3 additions over the course of 7 or 8 minutes. […]
# T2 sequence (Q14524 whole entry): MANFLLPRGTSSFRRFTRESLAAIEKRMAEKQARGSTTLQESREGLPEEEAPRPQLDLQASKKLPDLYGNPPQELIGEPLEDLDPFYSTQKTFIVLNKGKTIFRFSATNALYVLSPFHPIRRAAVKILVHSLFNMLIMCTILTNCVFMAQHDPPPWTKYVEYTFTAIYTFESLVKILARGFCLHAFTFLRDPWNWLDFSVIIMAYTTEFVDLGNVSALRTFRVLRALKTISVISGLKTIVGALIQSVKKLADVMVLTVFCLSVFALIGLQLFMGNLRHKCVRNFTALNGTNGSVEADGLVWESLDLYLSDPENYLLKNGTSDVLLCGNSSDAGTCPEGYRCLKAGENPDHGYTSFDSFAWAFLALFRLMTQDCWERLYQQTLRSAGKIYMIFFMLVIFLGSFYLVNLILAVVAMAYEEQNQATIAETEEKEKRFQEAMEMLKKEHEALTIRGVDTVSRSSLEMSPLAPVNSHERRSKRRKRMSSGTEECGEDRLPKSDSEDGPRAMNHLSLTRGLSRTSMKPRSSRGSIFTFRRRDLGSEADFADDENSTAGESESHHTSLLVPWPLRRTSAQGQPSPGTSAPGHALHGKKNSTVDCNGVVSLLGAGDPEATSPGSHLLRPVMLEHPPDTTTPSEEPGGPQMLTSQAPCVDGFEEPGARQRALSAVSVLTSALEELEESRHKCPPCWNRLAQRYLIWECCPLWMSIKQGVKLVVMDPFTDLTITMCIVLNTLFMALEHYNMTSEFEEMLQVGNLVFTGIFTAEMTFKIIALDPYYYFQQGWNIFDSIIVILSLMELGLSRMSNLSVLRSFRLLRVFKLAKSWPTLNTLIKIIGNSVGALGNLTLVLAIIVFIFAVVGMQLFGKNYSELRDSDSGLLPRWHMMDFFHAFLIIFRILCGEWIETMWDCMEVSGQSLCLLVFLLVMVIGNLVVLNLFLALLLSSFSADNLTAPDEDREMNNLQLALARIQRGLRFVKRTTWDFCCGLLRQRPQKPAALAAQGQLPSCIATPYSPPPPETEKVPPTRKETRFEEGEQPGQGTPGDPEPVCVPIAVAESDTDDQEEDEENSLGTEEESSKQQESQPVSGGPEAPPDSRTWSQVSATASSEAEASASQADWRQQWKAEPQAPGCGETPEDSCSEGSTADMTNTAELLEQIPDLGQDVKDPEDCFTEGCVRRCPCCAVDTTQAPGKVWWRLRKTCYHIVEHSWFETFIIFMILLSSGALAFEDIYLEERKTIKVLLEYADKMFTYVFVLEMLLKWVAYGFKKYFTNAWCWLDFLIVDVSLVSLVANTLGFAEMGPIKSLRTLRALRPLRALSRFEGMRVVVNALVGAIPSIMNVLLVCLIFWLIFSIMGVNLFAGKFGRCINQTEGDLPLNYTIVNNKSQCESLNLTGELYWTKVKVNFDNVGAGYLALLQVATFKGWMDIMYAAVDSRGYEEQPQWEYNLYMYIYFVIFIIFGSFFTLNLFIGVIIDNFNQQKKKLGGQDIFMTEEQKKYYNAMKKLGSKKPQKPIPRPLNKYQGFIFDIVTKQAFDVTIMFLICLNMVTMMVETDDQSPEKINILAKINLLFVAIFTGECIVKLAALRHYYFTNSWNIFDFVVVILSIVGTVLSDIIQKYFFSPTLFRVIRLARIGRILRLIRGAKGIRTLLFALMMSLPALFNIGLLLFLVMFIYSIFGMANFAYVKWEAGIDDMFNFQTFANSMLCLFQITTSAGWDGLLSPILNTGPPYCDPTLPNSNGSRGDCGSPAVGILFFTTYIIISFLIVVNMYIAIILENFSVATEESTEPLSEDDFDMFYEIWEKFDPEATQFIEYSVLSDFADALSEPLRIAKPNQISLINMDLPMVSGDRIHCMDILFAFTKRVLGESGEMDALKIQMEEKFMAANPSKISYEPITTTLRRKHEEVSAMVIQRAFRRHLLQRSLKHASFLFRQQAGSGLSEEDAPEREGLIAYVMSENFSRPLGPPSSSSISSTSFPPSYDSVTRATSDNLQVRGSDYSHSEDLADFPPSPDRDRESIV
# T1 sequence (Q12809 whole entry): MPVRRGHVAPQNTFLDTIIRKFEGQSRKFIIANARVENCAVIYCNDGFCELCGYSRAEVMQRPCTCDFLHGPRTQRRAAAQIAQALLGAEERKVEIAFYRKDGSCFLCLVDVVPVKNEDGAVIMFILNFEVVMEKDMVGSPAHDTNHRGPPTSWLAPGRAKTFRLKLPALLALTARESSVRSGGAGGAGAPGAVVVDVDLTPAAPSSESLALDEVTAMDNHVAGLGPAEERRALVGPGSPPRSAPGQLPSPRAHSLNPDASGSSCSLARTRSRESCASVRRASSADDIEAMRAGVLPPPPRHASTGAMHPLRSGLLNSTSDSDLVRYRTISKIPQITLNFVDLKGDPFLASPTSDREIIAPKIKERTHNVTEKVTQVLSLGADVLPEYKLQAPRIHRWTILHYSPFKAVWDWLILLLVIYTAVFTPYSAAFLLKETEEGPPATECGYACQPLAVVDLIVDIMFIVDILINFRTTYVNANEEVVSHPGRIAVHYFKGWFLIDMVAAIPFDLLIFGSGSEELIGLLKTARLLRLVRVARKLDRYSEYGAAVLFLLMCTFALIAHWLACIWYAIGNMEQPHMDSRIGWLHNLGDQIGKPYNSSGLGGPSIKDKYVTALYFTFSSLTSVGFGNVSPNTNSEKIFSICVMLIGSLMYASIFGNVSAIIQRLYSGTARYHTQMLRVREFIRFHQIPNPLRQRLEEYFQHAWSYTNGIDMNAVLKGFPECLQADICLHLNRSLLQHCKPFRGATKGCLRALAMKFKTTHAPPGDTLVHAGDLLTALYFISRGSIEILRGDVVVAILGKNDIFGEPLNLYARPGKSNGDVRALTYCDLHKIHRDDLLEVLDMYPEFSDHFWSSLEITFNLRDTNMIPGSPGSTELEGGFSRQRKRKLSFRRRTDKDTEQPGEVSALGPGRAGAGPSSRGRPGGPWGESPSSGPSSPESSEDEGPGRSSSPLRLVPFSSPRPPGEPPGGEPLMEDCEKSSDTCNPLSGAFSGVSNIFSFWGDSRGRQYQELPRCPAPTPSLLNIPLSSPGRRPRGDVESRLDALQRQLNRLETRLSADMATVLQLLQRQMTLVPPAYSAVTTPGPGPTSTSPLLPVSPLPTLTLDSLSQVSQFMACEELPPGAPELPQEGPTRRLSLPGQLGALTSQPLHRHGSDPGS
SMILES,HERG 1 uM (block of hERG current) (hERG potassium channel),HERG 10 uM (block of hERG current) (hERG potassium channel),inhibition at 10 µM [1],Late INa 1 uM (percent block of late INa) [1]
"Cc1nc2cc(-c3cccc(OC(F)(F)F)c3)ccc2n(C)c1=O [1,3-dimethyl-6-[3-(trifluoromethoxy)phenyl] quinoxalin-2(1H)-one]",19.5%,71.5%,70.9%,–
"Cc1nc2cc(-c3ccc(OC(F)(F)F)cc3)ccc2n(C)c1=O [1,3-dimethyl-6-[4-(trifluoromethoxy)phenyl] quinoxalin-2(1H)-one]",–,–,33.7%,–
"Cc1nc2ccc(-c3cccc(C(F)(F)F)c3)cc2n(C)c1=O [1,3-dimethyl-7-[3-(trifluoromethyl)phenyl] quinoxalin-2(1H)-one]",–,–,45.5%,–
"Cc1nc2ccc(-c3ccc(OC(F)(F)F)cc3)cc2n(C)c1=O [1,3-dimethyl-7-[4-(trifluoromethoxy)phenyl] quinoxalin-2(1H)-one]",–,–,61.7%,31.0%
"Cc1nc2ccc(-c3ccc(C(F)(F)F)cc3)cc2n(C)c1=O [1,3-dimethyl-7-[4-(trifluoromethyl)phenyl] quinoxalin-2(1H)-one]",25.0%,69.5%,58.3%,–
CC(C)c1nc2ccc(-c3cccc(OC(F)(F)F)c3)cc2n(C)c1=O [1-methyl-3-(propan-2-yl)-7-[3-(trifluoromethoxy)phenyl] quinoxalin-2(1H)-one],–,–,49.9%,–
CC(C)c1nc2ccc(-c3ccc(OC(F)(F)F)cc3)cc2n(C)c1=O [1-methyl-3-(propan-2-yl)-7-[4-(trifluoromethoxy)phenyl] quinoxalin-2(1H)-one],10.0%,10.0%,60.3%,31.3%
Cn1c(=O)c(C(F)(F)F)nc2cc(-c3cccc(C(F)(F)F)c3)ccc21 [1-methyl-3-(trifluoromethyl)-6-[3-(trifluoromethyl)phenyl] quinoxalin-2(1H)-one],–,–,24%,–
Cn1c(=O)c(C(F)(F)F)nc2cc(-c3cccc(OC(F)(F)F)c3)ccc21 [1-methyl-6-[3-(trifluoromethoxy)phenyl]-3-(trifluoromethyl)quinoxalin-2(1H)-one],–,–,31.6%,–
Cn1c(=O)c(C(F)(F)F)nc2cc(-c3ccc(OC(F)(F)F)cc3)ccc21 [1-methyl-6-[4-(trifluoromethoxy)phenyl]-3-(trifluoromethyl)quinoxalin-2(1H)-one],10.0%,47.5%,39.9%,–
Cn1c(=O)cnc2ccc(-c3ccc(OC(F)(F)F)cc3)cc21 [1-methyl-7-[4-(trifluoromethoxy)phenyl] quinoxalin-2(1H)-one],10.00%,41.5%,51.6%,–
Cn1c(=O)c(C(F)(F)F)nc2ccc(-c3ccc(OC(F)(F)F)cc3)cc21 [1-methyl-7-[4-(trifluoromethoxy)phenyl]-3-(trifluoromethyl)quinoxalin-2(1H)-one],10.00%,39.0%,38.7%,–
O=C(CO)NCCn1c(=O)c(C(F)(F)F)nc2ccc(-c3ccc(OC(F)(F)F)cc3)cc21 [2-hydroxy-N-(2-{2-oxo-7-[4-(trifiuoromethoxy)phenyl]-3-(trifluoromethyl)quinoxalin-1(2H)-yl}ethyl)acetamide],–,–,19%,–
Cn1c(=O)c(C(C)(C)O)nc2ccc(-c3ccc(OC(F)(F)F)cc3)cc21 [3-(2-hydroxypropan-2-yl)-1-methyl-7-[4-(trifluoromethoxy)phenyl] quinoxalin-2(1H)-one],19.5%,76.0%,54%,–
Cn1c(=O)c(C(C)(C)C)nc2ccc(-c3cccc(OC(F)(F)F)c3)cc21 [3-tert-butyl-1-methyl-7-[3-(trifluoromethoxy)phenyl] quinoxalin-2(1H)-one],10.0%,10.0%,77.5%,51.3%
Cn1c(=O)c(C(C)(C)C)nc2ccc(-c3ccc(OC(F)(F)F)cc3)cc21 [3-tert-butyl-1-methyl-7-[4-(trifluoromethoxy)phenyl] quinoxalin-2(1H)-one],–,–,44.6%,–
"Cc1nc2cc(-c3ccc(F)c(F)c3)ccc2n(C)c1=O [6-(3,4-difluorophenyl)-1,3-dimethylquinoxalin-2(1H)-one]",–,–,14.3%,–
"Cn1c(=O)cnc2ccc(-c3ccc(F)c(F)c3)cc21 [7-(3,4-difluorophenyl)-1-methylquinoxalin-2(1H)-one]",–,–,17.5%,–
CC(C)(C)c1nc2ccc(-c3cccc(OC(F)(F)F)c3)cc2n(CCNC(=O)CO)c1=O [N-(2-{3-tert-butyl-2-oxo-7-[3-(trifiuoromethoxy)phenyl]quinoxalin-1(2H)-yl}ethyl)-2-hydroxyacetamide],–,–,58.1%,–
"CCOC(=O)c1nc2ccc(-c3cccc(OC(F)(F)F)c3)cc2n(C)c1=O [ethyl 4-methyl-3-oxo-6-[3-(trifluoromethoxy)phenyl]-3,4-dihydroquinoxaline-2-carboxylate]",–,–,54.3%,–
